Molecular target: T1, His-hMAGL (recombinant polyhistidine tagged human MAGL protein) (Homo sapiens, UniProt Q99685)
T1 construct: made in house; host or cells: E. coli BL21(DE3)
T1 sequence (Q99685 1-303): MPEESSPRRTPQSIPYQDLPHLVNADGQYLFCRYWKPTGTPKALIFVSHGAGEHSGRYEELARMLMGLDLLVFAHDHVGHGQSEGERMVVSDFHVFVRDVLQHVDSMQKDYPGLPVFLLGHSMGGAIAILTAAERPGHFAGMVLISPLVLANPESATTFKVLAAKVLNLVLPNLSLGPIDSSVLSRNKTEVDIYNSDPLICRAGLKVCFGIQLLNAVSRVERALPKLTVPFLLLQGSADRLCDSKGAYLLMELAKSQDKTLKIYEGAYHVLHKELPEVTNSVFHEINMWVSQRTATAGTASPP
Experiment: Measurement of MAGL inhibitory activity (arachidonic acid production from 2-arachidonylglycerol, RapidFire-mass spectrometry)
Format: biochemical
Conditions: test compound 10 μM; MAGL inhibitory rate
Method: The His-hMAGL obtained above was diluted with enzyme reaction buffer (10 mM Tris-HCl, pH 7.5, 1 mM EDTA, 0.025 (w/v) % Triton X-100, 0.01% Bovine serum albumin) to a concentration of 7.5 ng/mL. To each well of a 384 well assay plate (Greiner 781280) was added a solution (5 μL) of a test compound dissolved in dimethyl sulfoxide (DMSO), which was diluted with the above-mentioned enzyme reaction buffer, then His-hMAGL solution (5 μL) diluted to a concentration of 7.5 ng/mL was added, and the mixture was incubated at room temperature for 60 min. Thereafter, to each well was added 5 μL of 150 μM 2-arachidonylglycerol (Tocris Bioscience), and the mixture was incubated at room temperature for 10 min. Then, 10 μL of 2% formic acid (Wako Pure Chemical Industries, Ltd.) was added to stop the reaction. Furthermore, acetonitrile (50 μL) containing 3 μM arachidonic acid-d8 (Cayman Chemical Company) was added and the mixture was stirred.
The amount of arachidonic acid in the obtained enzyme reaction mixture was calculated by measuring by RapidFire-mass spectrometry and correcting by the amount of arachidonic acid-d8. High Throughput online solid phase extraction was performed using RapidFire 300™ system (Agilent Technologies, Inc.). Samples were loaded on SPE C4 cartridge (Agilent Technologies, Inc.) and desalted with 0.2 (v/v) % acetic acid (Wako Pure Chemical Industries, Ltd.) in ultrapure water/acetonitrile (70/30, v/v) at a flow rate of 1.5 mL/min, eluted at a flow rate of 0.5 mL/min with 0.2 (v/v) % acetic acid dissolved in acetonitrile/ultrapure water (90/10, v/v), and injected into the mass spectrometry part. The injection needle was washed with ultrapure water (500 millisecond) and acetonitrile (500 millisecond) to minimize carry-over. The suction time (injection loop 5 μL), load/cleansing time, elution time and re-equilibration time were adjusted to 300, 3000, 4250 and 1000 milliseconds, respectively, and the total cycle time was adjusted to about 10.0 seconds. The RapidFire300 system was controlled by RapidFire UI software version 3.6 (Agilent Technologies, Inc.).
The mass spectrometry of the resultant product was performed using API4000™ triple quadrupole mass spectrometer (AB SCIEX) equipped with an electrospray ion sauce (TurboIon Spray™) in a negative selected reaction monitoring (SRM) mode. The conditions of SRM are shown below. The parameters of the instrument were optimized as follows: capillary temperature 600° C., ion spray voltage −4.5 kV, collision gas 8, curtain gas 15 psi, ion source gas 1 60 psi, ion source gas 2 60 psi. The mass spectrometer was controlled by Analyst™ software version 1.5.1 (AB SCIEX). The peak area integration was analyzed using RapidFire integrator software version 3.6 (Agilent Technologies, Inc.).
MAGL inhibitory rate (%) was calculated according to the following calculation formula. (1-(arachidonic acid production amount of test compound addition group−arachidonic acid production amount of enzyme-free group)+(arachidonic acid production amount of test compound-free group−arachidonic acid production amount of enzyme-free group))×100

inhibition at 10 µM [%]	Structure (SMILES)
100	O=C1NC2(CO1)CN(C(=O)O[C@H]1C[C@H](COc3ccc(F)c(F)c3F)C1)C2 [Example 21, trans-3-((2,3,4-trifluorophenoxy)methyl)cyclobutyl 6-oxo-7-oxa-2,5-diazaspiro[3.4]octane-2-carboxylate]
100	C[C@]1(OC(=O)N2CC3(COC(=O)N3)C2)C[C@H](Oc2c(F)cc(F)cc2F)C1 [Example 61, trans-1-methyl-3-(2,4,6-trifluorophenoxy)cyclobutyl 6-oxo-7-oxa-2,5-diazaspiro[3.4]octane-2-carboxylate]
103	O=C1NC2(CO1)CN(C(=O)O[C@H]1C[C@H](COc3ccc(C(F)(F)F)cc3F)C1)C2 [Example 22, trans-3-((2-fluoro-4-(trifluoromethyl)phenoxy)methyl)cyclobutyl 6-oxo-7-oxa-2,5-diazaspiro[3.4]octane-2-carboxylate]
102	O=C1NC2(CO1)CN(C(=O)O[C@H]1C[C@H](Oc3c(F)cc(F)cc3F)C1)C2 [Example 43, trans-3-(2,4,6-fluorophenoxy)cyclobutyl 6-oxo-7-oxa-2,5-diazaspiro[3.4]octane-2-carboxylate]
99	O=C1NC2(CO1)CN(C(=O)O[C@H]1C[C@H](OCc3ccc(C(F)(F)F)cc3F)C1)C2 [Example 62, trans-3-((2-fluoro-4-(trifluoromethyl)benzyl)oxy)cyclobutyl 6-oxo-7-oxa-2,5-diazaspiro[3.4]octane-2-carboxylate]
100	O=C1NC2(CO1)CN(C(=O)OC[C@H]1C[C@@H](Oc3c(F)cc(F)cc3F)C1)C2 [Example 23, (cis-3-(2,4,6-trifluorophenoxy)cyclobutyl)methyl 6-oxo-7-oxa-2,5-diazaspiro[3.4]octane-2-carboxylate]
103	O=C1NC2(CO1)CN(C(=O)O[C@H]1C[C@@H](Oc3ccc(F)cc3Cl)C1)C2 [Example 44, cis-3-(2-chloro-4-fluorophenoxy)cyclobutyl 6-oxo-7-oxa-2,5-diazaspiro[3.4]octane-2-carboxylate]
102	O=C1NC2(CO1)CN(C(=O)O[C@H]1CC[C@@H](Oc3ccc(C(F)(F)F)cc3F)CC1)C2 [Example 38, cis-4-(2-fluoro-4-(trifluoromethyl)phenoxy)cyclohexyl 6-oxo-7-oxa-2,5-diazaspiro[3.4]octane-2-carboxylate]
100	O=C1NC2(CO1)CN(C(=O)OC[C@H]1C[C@H](Oc3c(F)cc(F)cc3F)C1)C2 [Example 25, (trans-3-(2,4,6-trifluorophenoxy)cyclobutyl)methyl 6-oxo-7-oxa-2,5-diazaspiro[3.4]octane-2-carboxylate]
100	C[C@]1(Oc2ccc(F)cc2Cl)C[C@@H](OC(=O)N2CC3(COC(=O)N3)C2)C1 [Example 63, cis-3-(2-chloro-4-fluorophenoxy)-3-methylcyclobutyl 6-oxo-7-oxa-2,5-diazaspiro[3.4]octane-2-carboxylate]
100	O=C1NC2(CO1)CN(C(=O)O[C@H]1C[C@@H](COCc3ccc(C(F)(F)F)cc3F)C1)C2 [Example 36, cis-3-(((2-fluoro-4-(trifluoromethyl)benzyl)oxy)methyl)cyclobutyl 6-oxo-7-oxa-2,5-diazaspiro[3.4]octane-2-carboxylate]
101	O=C1NC2(CO1)CN(C(=O)O[C@H]1C[C@@H](COc3cc(F)c(F)cc3F)C1)C2 [Example 17, cis-3-((2,4,5-trifluorophenoxy)methyl)cyclobutyl 6-oxo-7-oxa-2,5-diazaspiro[3.4]octane-2-carboxylate]
100	O=C1NC2(CO1)CN(C(=O)O[C@H]1C[C@@H](Oc3ccc(Cl)cc3F)C1)C2 [Example 54, cis-3-(4-chloro-2-fluorophenoxy)cyclobutyl 6-oxo-7-oxa-2,5-diazaspiro[3.4]octane-2-carboxylate]
101	Cc1ccc(O[C@H]2C[C@@H](OC(=O)N3CC4(COC(=O)N4)C3)C2)c(F)c1 [Example 56, cis-3-(2-fluoro-4-methylphenoxy)cyclobutyl 6-oxo-7-oxa-2,5-diazaspiro[3.4]octane-2-carboxylate]

Continued, molecule first:

Structure (SMILES)	inhibition at 10 µM [%]
Cc1ccc(COC[C@H]2C[C@@H](OC(=O)N3CC4(COC(=O)N4)C3)C2)cc1Cl [Example 28, cis-3-(((3-chloro-4-methylbenzyl)oxy)methyl)cyclobutyl 6-oxo-7-oxa-2,5-diazaspiro[3.4]octane-2-carboxylate]	100
Cc1cc(F)ccc1OC[C@H]1C[C@@H](OC(=O)N2CC3(COC(=O)N3)C2)C1 [Example 13, cis-3-((4-fluoro-2-methylphenoxy)methyl)cyclobutyl 6-oxo-7-oxa-2,5-diazaspiro[3.4]octane-2-carboxylate]	102
O=C1NC2(CO1)CN(C(=O)OC[C@H]1C[C@H](Oc3ccc(C(F)(F)F)cc3Cl)C1)C2 [Example 27, (trans-3-(2-chloro-4-(trifluoromethyl)phenoxy)cyclobutyl)methyl 6-oxo-7-oxa-2,5-diazaspiro[3.4]octane-2-carboxylate]	100
O=C1NC2(CO1)CN(C(=O)O[C@H]1C[C@@H](Oc3cccc(Cl)c3)C1)C2 [Example 49, cis-3-(3-chlorophenoxy)cyclobutyl 6-oxo-7-oxa-2,5-diazaspiro[3.4]octane-2-carboxylate]	100
O=C1NC2(CO1)CN(C(=O)O[C@H]1C[C@@H](OCc3ccccc3)C1)C2 [Example 2, cis-3-(benzyloxy)cyclobutyl 6-oxo-7-oxa-2,5-diazaspiro[3.4]octane-2-carboxylate]	101
O=C1NC2(CO1)CN(C(=O)O[C@H]1C[C@@H](Oc3ccc(C(F)(F)F)cc3)C1)C2 [Example 48, cis-3-(4-(trifluoromethyl)phenoxy)cyclobutyl 6-oxo-7-oxa-2,5-diazaspiro[3.4]octane-2-carboxylate]	100
O=C1NC2(CO1)CN(C(=O)O[C@H]1C[C@@H](OCc3ccc(Cl)c(Cl)c3)C1)C2 [Example 9, cis-3-((3,4-dichlorobenzyl)oxy)cyclobutyl 6-oxo-7-oxa-2,5-diazaspiro[3.4]octane-2-carboxylate]	99
O=C1NC2(CO1)CN(C(=O)O[C@H]1C[C@@H](OCc3ccc(C(F)(F)F)c(Cl)c3)C1)C2 [Example 11, cis-3-((3-chloro-4-(trifluoromethyl)benzyl)oxy)cyclobutyl 6-oxo-7-oxa-2,5-diazaspiro[3.4]octane-2-carboxylate]	100
Cc1ccc(OC[C@H]2C[C@@H](OC(=O)N3CC4(COC(=O)N4)C3)C2)c(F)c1 [Example 12, cis-3-((2-fluoro-4-methylphenoxy)methyl)cyclobutyl 6-oxo-7-oxa-2,5-diazaspiro[3.4]octane-2-carboxylate]	101
O=C1NC2(CCN(C(=O)O[C@H]3C[C@@H](COc4ccc(F)c(F)c4F)C3)C2)CO1 (stereo partly drawn) [Example 35, cis-3-((2,3,4-trifluorophenoxy)methyl)cyclobutyl 2-oxo-3-oxa-1,7-diazaspiro[4.4]nonane-7-carboxylate]	100
O=C1NC2(CO1)CN(C(=O)O[C@H]1C[C@H](OCc3ccccc3)C1)C2 [Example 42, trans-3-(benzyloxy)cyclobutyl 6-oxo-7-oxa-2,5-diazaspiro[3.4]octane-2-carboxylate]	99
Cc1ccc(O[C@H]2C[C@@H](OC(=O)N3CC4(COC(=O)N4)C3)C2)cc1 [Example 53, cis-3-(4-methylphenoxy)cyclobutyl 6-oxo-7-oxa-2,5-diazaspiro[3.4]octane-2-carboxylate]	101

Reference: US11274101B2, “Heterocyclic compound” (Takeda Pharmaceutical Company Limited, priority 2017, dated 2022)
